Experiment: xn = mol fraction of the nth substance listed
Details: 102 kPa

Question: Which results are given for `O=C(O)C(F)(F)C(F)(F)C(F)(F)C(F)(F)F` + CC[n+]1ccn(C)c1.[Cl-]?
Answer: viscosity (293.15 K, x2 = 0.3346): 35.2 mPa·s; viscosity (293.15 K, x2 = 0.5026): 92.1 mPa·s; viscosity (298.15 K, x2 = 0.3346): 29 mPa·s; viscosity (298.15 K, x2 = 0.5026): 72.1 mPa·s; viscosity (298.15 K, x2 = 0.6636): 213.4 mPa·s; viscosity (303.15 K, x2 = 0.5026): 57.4 mPa·s; viscosity (303.15 K, x2 = 0.6636): 158.1 mPa·s; viscosity (308.15 K, x2 = 0.3346): 20.4 mPa·s; viscosity (308.15 K, x2 = 0.5026): 46.4 mPa·s; viscosity (308.15 K, x2 = 0.6636): 119.8 mPa·s; viscosity (313.15 K, x2 = 0.5026): 38.2 mPa·s; viscosity (313.15 K, x2 = 0.6636): 92.7 mPa·s; viscosity (318.15 K, x2 = 0.3346): 14.99 mPa·s; viscosity (318.15 K, x2 = 0.6636): 73 mPa·s; viscosity (323.15 K, x2 = 0.3346): 13.02 mPa·s; viscosity (323.15 K, x2 = 0.6636): 58.4 mPa·s; viscosity (328.15 K, x2 = 0.3346): 11.4 mPa·s; viscosity (328.15 K, x2 = 0.5026): 22.58 mPa·s; viscosity (328.15 K, x2 = 0.6636): 47.5 mPa·s; viscosity (333.15 K, x2 = 0.3346): 10.04 mPa·s; viscosity (338.15 K, x2 = 0.6636): 32.6 mPa·s; viscosity (343.15 K, x2 = 0.3346): 7.94 mPa·s; viscosity (343.15 K, x2 = 0.5026): 14.53 mPa·s; viscosity (343.15 K, x2 = 0.6636): 27.5 mPa·s; viscosity (348.15 K, x2 = 0.3346): 7.13 mPa·s; viscosity (348.15 K, x2 = 0.6636): 23.56 mPa·s; viscosity (353.15 K, x2 = 0.5026): 11.25 mPa·s; viscosity (353.15 K, x2 = 0.6636): 20.29 mPa·s

— a compilation of properties of binary mixtures (doi:10.1021/acs.jced.0c00588)
